Residues, ends and D or L forms follow the SMILES beside them.
What was measured:
Format in all cases: in vivo, mouse (Balb/c)
Settings in all cases: BALF, serum or lung tissue extract
[1] = system: IL-5; assay: Induction of IL-5 by the peptide itself
[2] = system: TNFα; assay: Induction of TNFα by the peptide itself
[3] = system: IL-4; assay: Induction of IL-4 by the peptide itself
[4] = system: IL-1β; assay: Induction of IL-1β by the peptide itself

CC[C@H](C)[C@H](NC(=O)[C@H](CCCNC(=N)N)NC(=O)[C@H](Cc1c[nH]c2ccccc12)NC(=O)[C@@H](NC(=O)[C@@H](NC(=O)[C@H](CC(C)C)NC(=O)[C@H](Cc1c[nH]c2ccccc12)NC(=O)[C@H](CCCNC(=N)N)NC(=O)[C@H](CCC(N)=O)NC(=O)[C@@H](N)C(C)C)[C@@H](C)CC)C(C)C)C(=O)N[C@@H](CCCNC(=N)N)C(=O)N[C@@H](CCCCN)C(N)=O [IDR 1002, VQRWLIVWRIRK-NH2] (H-VQRWLIVWRIRK-NH2)
did not induce: induction of IL-5 [1] | induction of TNFα [2] | induction of IL-4 [3] | induction of IL-1β [4]
